Experimental findings from PubChem BioAssay (NCI) are described below.

Among the test systems are K-562 leukemia; NCI-H460 lung; ACHN renal; KM12 colon; IGROV1 ovarian; HCC-2998 colon; SF-295 CNS; SF-539 CNS.
Test in all cases: DTP human tumour cell line panel, 48 h

Structures are written as SMILES.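 Method: 48-hour compound exposure of cells in 96-well plates, five concentrations, linear interpolation of endpoints. GI50 marks 50% less growth. TGI marks complete inhibition of growth.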

A word on the GI50: it is the concentration at which growth is held to half of that of the control. One may read the TGI as the concentration at which net growth stops. As for `O=[N+]([O-])c1ccc(-c2ccccc2)c([As](=O)(O)O)c1`, the GI50 in the experiment on K-562 leukemia is 4.89 µM; with NCI-H460 lung, 28 µM; in the experiment on ACHN renal, 13.7 µM; in the experiment with KM12 colon it was 39.4 µM; in the experiment with IGROV1 ovarian it was 8.35 µM; with HCC-2998 colon, 19.4 µM. For the same compound, the figures for the GI50 in the experiment with SF-295 CNS and in the experiment with SF-539 CNS were 22.3 µM and 13 µM, respectively. Also, the TGI with K-562 leukemia was > 100 µM; in the experiment on NCI-H460 lung, > 100 µM; in the experiment on ACHN renal, 30.1 µM; in the experiment on KM12 colon it was > 100 µM; in the experiment with IGROV1 ovarian it was 27.8 µM; in the experiment on HCC-2998 colon, 45.5 µM. Further, the TGI with SF-295 CNS is > 100 µM; in the experiment on SF-539 CNS, 44.6 µM.
As for `CC(=O)OCC(=O)C1(O)C(C)CC2C3C=C(C)C4=Cc5c(cnn5-c5ccccc5)CC4(C)C3C(O)CC21C` (stereo not drawn), the GI50 was 0.5 µM in the experiment with K-562 leukemia; 1.43 µM in the experiment with NCI-H460 lung; 2.16 µM with ACHN renal; 1.32 µM in the experiment on KM12 colon; 1.99 µM in the experiment on IGROV1 ovarian; 1.92 µM in the experiment on HCC-2998 colon. For the same compound, the results for the GI50 in the experiment on SF-295 CNS and with SF-539 CNS were 0.624 µM and 0.439 µM, respectively. The TGI in the experiment on K-562 leukemia is > 100 µM; in the experiment on NCI-H460 lung, 3.24 µM; in the experiment with ACHN renal it was 9.03 µM; with KM12 colon it was 2.78 µM; with IGROV1 ovarian, 6.48 µM; in the experiment on HCC-2998 colon, 3.66 µM. The values for the TGI with SF-295 CNS and in the experiment on SF-539 CNS were 2.63 µM and 2.41 µM, respectively.
Regarding `O=C(NO)c1cnc(N2CCN(S(=O)(=O)c3ccc4ccccc4c3)CC2)nc1`, the GI50 with K-562 leukemia is 0.0363 µM; with NCI-H460 lung, 0.0535 µM; in the experiment with ACHN renal, 0.0723 µM; in the experiment on KM12 colon it was 0.0759 µM; with IGROV1 ovarian, 0.162 µM; in the experiment with HCC-2998 colon it was 0.11 µM. Moreover, the GI50 in the experiment on SF-295 CNS was 0.0532 µM; with SF-539 CNS, 0.0762 µM. For the same compound, the TGI in the experiment with K-562 leukemia was > 40.9 µM; in the experiment with NCI-H460 lung, 11.9 µM; in the experiment with ACHN renal it was 0.595 µM; in the experiment on KM12 colon, 0.412 µM; in the experiment on IGROV1 ovarian, 0.78 µM; in the experiment on HCC-2998 colon, 0.32 µM. For the same compound, the values for the TGI with SF-295 CNS and with SF-539 CNS were 0.268 µM and 2.8 µM, respectively.
As to `CC(C)N(C[C@H]1O[C@@H](n2cnc3c(N)ncnc32)[C@H](O)[C@@H]1O)C1CC(CCc2nc3ccc(C(C)(C)C)cc3[nH]2)C1` (stereo partly drawn), the GI50 was 33.4 µM in the experiment with K-562 leukemia; > 100 µM in the experiment with NCI-H460 lung; > 100 µM in the experiment with ACHN renal; > 100 µM in the experiment with KM12 colon; > 72.4 µM in the experiment on IGROV1 ovarian; > 100 µM in the experiment on HCC-2998 colon. For the same compound, the values for the GI50 in the experiment on SF-295 CNS and in the experiment with SF-539 CNS were > 70.8 µM and > 100 µM, respectively. Besides, the TGI with K-562 leukemia is > 75.3 µM; with NCI-H460 lung it was > 100 µM; with ACHN renal, > 100 µM; in the experiment with KM12 colon it was > 100 µM; with IGROV1 ovarian it was > 100 µM; in the experiment on HCC-2998 colon, > 100 µM. Also, the TGI with SF-295 CNS and with SF-539 CNS was > 100 µM throughout.
Take `CNCCOc1nc2c3cnccc3cc(-c3cc(OC)c(OC)c(OC)c3)c2c2ccncc12`: the GI50 in the experiment on K-562 leukemia is 0.0294 µM; with NCI-H460 lung, < 0.01 µM; in the experiment with ACHN renal, 0.015 µM; in the experiment on KM12 colon it was 0.0536 µM; in the experiment with IGROV1 ovarian, 0.0281 µM; in the experiment with HCC-2998 colon it was 0.0454 µM. Moreover, the GI50 is 0.0211 µM in the experiment on SF-295 CNS and 0.0438 µM in the experiment with SF-539 CNS. Also, the TGI with K-562 leukemia was determined as 10.1 µM; in the experiment on NCI-H460 lung it was 0.103 µM; in the experiment on ACHN renal it was 0.0598 µM; with KM12 colon, 2.52 µM; with IGROV1 ovarian, 0.357 µM; in the experiment with HCC-2998 colon it was 0.213 µM. Moreover, the TGI in the experiment with SF-295 CNS amounted to 0.101 µM; with SF-539 CNS, 0.225 µM.
With `C=C1CO[C@@H]2C[C@@H]1CC/C(C)=C/CC/C(C)=C/CC[C@@]2(C)O`, the GI50 in the experiment with K-562 leukemia was 15.1 µM; with NCI-H460 lung, 24.1 µM; with ACHN renal, 18.8 µM; in the experiment on KM12 colon, 17.4 µM; with IGROV1 ovarian, 3.96 µM; with HCC-2998 colon, 18.3 µM. The results for the GI50 with SF-295 CNS and in the experiment on SF-539 CNS were 19.6 µM and 23.4 µM, respectively. Also, the TGI with K-562 leukemia is > 46.2 µM; in the experiment on NCI-H460 lung it was > 68.3 µM; with ACHN renal it was 34 µM; in the experiment on KM12 colon, 36 µM; in the experiment on IGROV1 ovarian it was 28.8 µM; with HCC-2998 colon it was 36.4 µM. For the same compound, the results for the TGI with SF-295 CNS and with SF-539 CNS were 41.7 µM and 43.6 µM, respectively.
Take `COc1ccc(-n2sc(=O)n(Cc3ccc(COC(=O)C(C)c4ccc(CC(C)C)cc4)cc3)c2=O)cc1` (stereo not drawn): the GI50 with K-562 leukemia was 1.43 µM; in the experiment with NCI-H460 lung it was 5.41 µM; in the experiment with ACHN renal, 0.996 µM; in the experiment with KM12 colon it was 7.7 µM; with IGROV1 ovarian, 1.4 µM; in the experiment on HCC-2998 colon it was 7.99 µM. Also, the GI50 in the experiment with SF-295 CNS was 10.6 µM; with SF-539 CNS it was 5.12 µM. Also, the TGI is 10.4 µM in the experiment with K-562 leukemia; 12.5 µM in the experiment on NCI-H460 lung; 2.05 µM with ACHN renal; 14.6 µM in the experiment on KM12 colon; 4.74 µM with IGROV1 ovarian; 17.2 µM in the experiment on HCC-2998 colon. Moreover, the TGI in the experiment on SF-295 CNS is 24.1 µM; in the experiment with SF-539 CNS it was 10.9 µM.
`N#CC[C@H](C1CCCC1)n1cc(-c2ncnc3[nH]ccc23)cn1`: the GI50 in the experiment with K-562 leukemia was 22.2 µM; in the experiment on NCI-H460 lung it was 14.4 µM; in the experiment with ACHN renal, 23.3 µM; in the experiment on KM12 colon, 2.71 µM; with IGROV1 ovarian it was 34 µM; in the experiment on HCC-2998 colon, 20.6 µM. Moreover, the GI50 is 19.4 µM in the experiment with SF-295 CNS and 16.7 µM in the experiment on SF-539 CNS. The TGI in the experiment on K-562 leukemia was > 100 µM; with NCI-H460 lung, > 100 µM; with ACHN renal, > 100 µM; in the experiment on KM12 colon it was > 62.6 µM; in the experiment with IGROV1 ovarian, > 100 µM; in the experiment with HCC-2998 colon, > 91.7 µM. The figures for the TGI in the experiment on SF-295 CNS and with SF-539 CNS were 51.4 µM and 62.7 µM, respectively.
`COC(=O)Nc1nc2ccc(Sc3ccccc3)cc2[nH]1`: the GI50 with K-562 leukemia is 0.0482 µM; in the experiment on NCI-H460 lung, 0.247 µM; with ACHN renal, 1.19 µM; in the experiment with KM12 colon it was 0.0634 µM; in the experiment on IGROV1 ovarian, 0.441 µM; in the experiment with HCC-2998 colon, 0.22 µM. The GI50 is 0.152 µM with SF-295 CNS and 0.234 µM in the experiment with SF-539 CNS. Besides, the TGI in the experiment with NCI-H460 lung turned out to be 11.6 µM; in the experiment with ACHN renal, 22.9 µM; in the experiment on KM12 colon, 22.3 µM; in the experiment on IGROV1 ovarian it was 18.3 µM; in the experiment on HCC-2998 colon, 3.03 µM; in the experiment on SF-295 CNS, 19.9 µM. Besides, in the experiment with SF-539 CNS, the TGI was determined as 0.933 µM.
